One experiment addresses T1, Human FXIIa (Homo sapiens, UniProt P00748).
T1 construct: active coagulation factor XII (FXIIa); purchased Enzyme Research Labs
T1 sequence (P00748 373-615 limits assumed): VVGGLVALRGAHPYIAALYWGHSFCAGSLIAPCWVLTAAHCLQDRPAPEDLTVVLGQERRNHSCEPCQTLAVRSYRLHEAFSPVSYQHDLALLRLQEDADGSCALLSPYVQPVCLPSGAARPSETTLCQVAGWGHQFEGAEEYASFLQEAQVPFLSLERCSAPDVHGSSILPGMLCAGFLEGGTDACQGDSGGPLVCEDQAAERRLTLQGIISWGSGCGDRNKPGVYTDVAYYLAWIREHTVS
T1 sequence (P00748 20-372 partner limits assumed): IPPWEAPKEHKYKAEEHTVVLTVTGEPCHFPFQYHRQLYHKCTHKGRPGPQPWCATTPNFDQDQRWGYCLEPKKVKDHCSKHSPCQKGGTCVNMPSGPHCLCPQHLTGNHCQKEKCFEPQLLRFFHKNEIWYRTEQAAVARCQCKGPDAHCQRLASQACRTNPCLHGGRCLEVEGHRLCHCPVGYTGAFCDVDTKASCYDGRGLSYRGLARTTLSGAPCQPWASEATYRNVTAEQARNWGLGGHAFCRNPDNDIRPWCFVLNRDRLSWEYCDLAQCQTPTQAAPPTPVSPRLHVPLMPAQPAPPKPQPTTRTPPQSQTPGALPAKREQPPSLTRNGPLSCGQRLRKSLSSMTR
Briefly: Factor XIIa (FXIIa) inhibitory activity, chromogenic substrate assay. The experiment is classed as biochemical. The conditions noted are these: Human FXIIa 12.5 nM, Pefachrome XIIa 400 μM, 10 min preincubation. Put shortly: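 Activity was taken as the rate of absorbance increase at 405 nm, read at 37 °C after adding 400 μM (final) Pefachrome XIIa. Compounds spanning roughly 1–100 μM were first preincubated with enzyme for 10 min at room temperature in HEPES pH 7.4-buffered HBSS/TBS-Tween.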

For a further experiment, the target named is T2, Human alpha-thrombin (Homo sapiens, UniProt P00734).
T2 construct: Human alpha-thrombin (Enzyme Research Labs); purchased Enzyme Research Labs
Briefly: Thrombin counterscreen for selectivity, fluorogenic substrate assay. The experiment is classed as biochemical. To be noted: Human alpha-thrombin 12.5 nM, Boc-Val-Pro-Arg-AMC 20 μM, 10 min preincubation. As for the experimental part:
Counterscreens for Selectivity:
In a 96-well white opaque plate, 80 μl of assay buffer was added to each well. Test compounds were added, and serially diluted as above, to generate a concentration range of approximately 1-100 μM. […] 80 μl of this enzyme solution was added to the assay wells. The enzyme/compound mixtures were incubated for 10 minutes at room temperature. Fluorogenic substrate (Boc-Val-Pro-Arg-7-amido-4-methylcoumarin; Sigma) was added to assay wells at a final concentration of 20 μM. The assay plate was spun for 1 minute at 1500 g and then read at 37° C. in a SpectraMax M2 plate reader (λex=380 nm and λem=460 nm). Activity was quantified as the rate of change in fluorescence, which corresponds to the rate of substrate cleavage.

Some results are limits rather than exact numbers.

Usually IC50 stands for the concentration needed to halve the response being measured.

Regarding `CCN1CCC(C(=O)n2nc3c(c2N)CCCC3)c2ccccc21` (single isomer, unassigned) [Example 74, (3-amino-4,5,6,7-tetrahydroindazol-2-yl)(1-ethyl-1,2,3,4-tetrahydroquinolin-4-yl)methanone], the figures for the IC50 against Human FXIIa and against Human alpha-thrombin were 0.5 µM and more than 100 µM, respectively.

On to `CCN1CCC(C(=O)n2nc(N)c3c2CCCC3)c2ccccc21` (single isomer, unassigned) [Example 75, (3-amino-4,5,6,7-tetrahydroindazol-1-yl)(1-ethyl-1,2,3,4-tetrahydroquinolin-4-yl)methanone], for which the IC50 against Human FXIIa and at Human alpha-thrombin was more than 100 µM each time.

With `Nc1c2c(nn1C(=O)C1CCNc3ccccc31)CCCC2` (single isomer, unassigned) [Example 76, (3-amino-4,5,6,7-tetrahydroindazol-2-yl)(1,2,3,4-tetrahydroquinolin-4-yl)methanone], the IC50 is 0.3 µM against Human FXIIa and more than 100 µM against Human alpha-thrombin.

Consider `Nc1c2c(nn1C(=O)[C@H]1CCCc3[nH]c(Cl)cc31)CC[C@@H](O)C2` (single isomer, unassigned) [Example 125], for which the half-inhibitory concentration (IC50) at Human FXIIa is 1.4 µM; against Human alpha-thrombin, more than 100 µM.

Consider `Nc1c2c(nn1C(=O)[C@H]1CCCc3[nH]c(Cl)cc31)CC[C@@H](O)C2` (single isomer, unassigned) [Example 126, ((5R*)-3-amino-5-hydroxy-4,5,6,7-tetrahydroindazol-2-yl)((4S*)-2-chloro-4,5,6,7-tetrahydro-1H-indol-4-yl)methanone], for which the IC50 on Human FXIIa is 0.02 µM; on Human alpha-thrombin, 37 µM.

Consider `Nc1c2c(nn1C(=O)[C@H]1CCCc3[nH]c(Cl)cc31)CC[C@H](O)C2` (single isomer, unassigned) [Example 127, ((5S*)-3-amino-5-hydroxy-4,5,6,7-tetrahydroindazol-2-yl)((4S*)-2-chloro-4,5,6,7-tetrahydro-1H-indol-4-yl)methanone], for which the figures for the IC50 at Human FXIIa and at Human alpha-thrombin were 0.35 µM and more than 80 µM, respectively.

Take `Nc1c2c(nn1C(=O)[C@@H]1CCCc3[nH]c(Cl)cc31)CC[C@H](O)C2` (single isomer, unassigned) [Example 128, ((5S*)-3-amino-5-hydroxy-4,5,6,7-tetrahydroindazol-2-yl)((4R*)-2-chloro-4,5,6,7-tetrahydro-1H-indol-4-yl)methanone]: the IC50 is 30 µM at Human FXIIa and more than 65 µM against Human alpha-thrombin.

As for `Nc1c2c(nn1C(=O)[C@H]1CCNc3ccc(F)cc31)CC[C@@H](O)C2` (single isomer, unassigned) [Example 129, ((5R*)-3-amino-5-hydroxy-4,5,6,7-tetrahydro-2H-indazol-2-yl)(4(S*)-6-fluoro-1,2,3,4-tetrahydroquinolin-4-yl)methanone], the IC50 on Human FXIIa was 0.05 µM; against Human alpha-thrombin, more than 150 µM.

Consider `Nc1c2c(nn1C(=O)[C@H]1CCNc3ccc(F)cc31)CC[C@@H](F)C2` (single isomer, unassigned) [Example 137, ((5R*)-3-amino-5-fluoro-4,5,6,7-tetrahydroindazol-2-yl)((4S*)-6-fluoro-1,2,3,4-tetrahydroquinolin-4-yl)methanone], for which the IC50 against Human FXIIa was found to be 0.06 µM; at Human alpha-thrombin, 29 µM.

As to `Nc1c2c(nn1C(=O)[C@H]1CCNc3ccc(F)cc31)CC[C@H](F)C2` (single isomer, unassigned) [Example 140, ((5S*)-3-amino-5-fluoro-4,5,6,7-tetrahydroindazol-2-yl)((4S*)-6-fluoro-1,2,3,4-tetrahydroquinolin-4-yl)methanone], the figures for the IC50 against Human FXIIa and against Human alpha-thrombin were 0.2 µM and more than 60 µM, respectively.

As for `Nc1c2c(nn1C(=O)[C@H]1CCNc3ccc(Cl)cc31)CC[C@H](O)C2` (single isomer, unassigned) [Example 143, ((5S*)-3-amino-5-hydroxy-4,5,6,7-tetrahydroindazol-2-yl)((4S*)-6-chloro-1,2,3,4-tetrahydroquinolin-4-yl)methanone], the values for the IC50 against Human FXIIa and against Human alpha-thrombin were 1.3 µM and more than 80 µM, respectively.

With `Nc1c2c(nn1C(=O)[C@H]1CCNc3ccc(Cl)cc31)CC[C@@H](O)C2` (single isomer, unassigned) [Example 148, ((5R*)-3-amino-5-hydroxy-4,5,6,7-tetrahydroindazol-2-yl)((4S*)-6-chloro-1,2,3,4-tetrahydroquinolin-4-yl)methanone], the concentration for half-maximal inhibition (IC50) was 0.04 µM against Human FXIIa and more than 80 µM against Human alpha-thrombin.

For `Nc1c2c(nn1C(=O)[C@H]1CCNc3ccccc31)CC[C@@H](O)C2` (single isomer, unassigned) [Example 165, ((5R*)-3-amino-5-hydroxy-4,5,6,7-tetrahydroindazol-2-yl)((4S*)-1,2,3,4-tetrahydroquinolin-4-yl)methanone], the IC50 against Human FXIIa is 0.35 µM; against Human alpha-thrombin, more than 80 µM.

`Nc1nn(C(=O)[C@H]2CCNc3ccccc32)c2c1C[C@H](O)CC2` (single isomer, unassigned) [Example 167, ((5R*)-3-amino-5-hydroxy-4,5,6,7-tetrahydroindazol-1-yl)((4S*)-1,2,3,4-tetrahydroquinolin-4-yl)methanone]: the IC50 on Human FXIIa and against Human alpha-thrombin was more than 80 µM in each case.

On to `Nc1nn(C(=O)[C@@H]2CCNc3ccccc32)c2c1C[C@H](O)CC2` (single isomer, unassigned) [Example 168, ((5R*)-3-amino-5-hydroxy-4,5,6,7-tetrahydroindazol-1-yl)((4R*)-1,2,3,4-tetrahydroquinolin-4-yl)methanone], for which the IC50 at Human FXIIa and against Human alpha-thrombin was more than 100 µM in each case.

For `Nc1c2c(nn1C(=O)[C@@H]1CCNc3ccccc31)CC[C@H](O)C2` (single isomer, unassigned) [Example 169, ((5S*)-3-amino-5-hydroxy-4,5,6,7-tetrahydroindazol-2-yl)((4R*)-1,2,3,4-tetrahydroquinolin-4-yl)methanone], the results for the half-inhibitory concentration (IC50) against Human FXIIa and at Human alpha-thrombin were 60 µM and more than 100 µM, respectively.

Take `Nc1c2c(nn1C(=O)[C@H]1CCNc3ccccc31)CC[C@H](O)C2` (single isomer, unassigned) [Example 170, ((5S*)-3-amino-5-hydroxy-4,5,6,7-tetrahydroindazol-2-yl)((4S*)-1,2,3,4-tetrahydroquinolin-4-yl)methanone]: the IC50 is 6 µM against Human FXIIa and more than 150 µM against Human alpha-thrombin.

As for `Nc1nn(C(=O)[C@H]2CCNc3ccccc32)c2c1C[C@@H](O)CC2` (single isomer, unassigned) [Example 171, ((5S*)-3-amino-5-hydroxy-4,5,6,7-tetrahydroindazol-1-yl)((4S*)-1,2,3,4-tetrahydroquinolin-4-yl)methanone], the IC50 at Human FXIIa and on Human alpha-thrombin was more than 90 µM throughout.

For the molecule `Nc1nn(C(=O)[C@@H]2CCNc3ccccc32)c2c1C[C@@H](O)CC2` (single isomer, unassigned) [Example 172, ((5S*)-3-amino-5-hydroxy-4,5,6,7-tetrahydroindazol-1-yl)((4R*)-1,2,3,4-tetrahydroquinolin-4-yl)methanone], the IC50 at Human FXIIa and on Human alpha-thrombin was more than 100 µM in each case.

In the case of `Nc1c2c(nn1C(=O)C1CCNc3ccc(F)cc31)CCC(F)(F)C2` (single isomer, unassigned) [Example 173, (S*)-(3-amino-5,5-difluoro-4,5,6,7-tetrahydroindazol-2-yl)(6-fluoro-1,2,3,4-tetrahydroquinolin-4-yl)methanone], the IC50 against Human FXIIa was determined as 0.1 µM; on Human alpha-thrombin, 30 µM.

Values taken from patent US10538512B2, “Aminoacylindazole immunomodulators for treatment of autoimmune diseases” (The Rockefeller University, priority 2016, dated 2020).
